{"source": "patent US12414983B2", "about": "“CD200AR ligands for cancer immunotherapy” (REGENTS OF THE UNIVERSITY OF MINNESOTA, priority 2019, dated 2025)", "key": {"[1]": {"test_system": "spontaneously occurring glioblastoma", "test": "Canine study: tumor resection plus canine CD200AR-L and autologous tumor lysate vaccination", "format": "in vivo, dog", "settings": "canine glioma model", "description": "Canine study. Pet dogs with a solitary intra-axial mass found by magnetic resonance imaging (MRI) were recruited into a pilot study to assess the effect of a canine-specific peptide. The MRIs were performed to find the causes of generalized seizure activity or behavioral changes, and anti-epileptic drug therapy and corticosteroids were prescribed to control seizures and minimize cerebral edema, respectively. Additional inclusion criteria were 1) tumor suitable for surgical resection, 2) informed consent provided by the dog's owner, 3) normal mentation status at the time of surgery, and 4) no previous definitive therapy for the suspected glioma.\nAll dogs underwent surgical resection of the intra-axial mass for maximal tumor debulking. The removed tumors were immediately processed to generate autologous tumor lysates. The lysates were prepared by culturing single-cell suspensions from minced fresh tumor samples at 37° C. in 5% […]. […] An immediate postoperative MRI was performed to assess the extent of resection and to quantify any residual tumor volume. Tumor volume was measured using the planimetry method, which outlines the tumor perimeter on each MR slice; Osirix software was used to calculate the area, and then the areas were summed and multiplied by slice thickness plus gap width. After recovery from anesthesia, all dogs were monitored in the intensive care unit for at least 24 hours. […]"}, "Human CD14+ cells": {"test_system": "Human CD14+ cells", "test": "Cytokine measurements in CD14+ cells pulsed with CD200AR-L peptide", "format": "cell-based", "settings": "selection among 61 alanine-substituted peptides", "description": "Cytokine measurements. Human CD14^+ cells (5×10^5) were isolated from peripheral blood mononuclear cells (PBMCs) using anti-CD14 beads (BD Biosciences, San Jose, CA), typically yielding ≥70% recovery and ≥90% purity. Cells were pulsed with 2 μM CD200AR-L peptide and incubated for 48 h, after which the supernatants were analyzed by bead array for cytokine production (BD Biosciences, San Jose, CA)."}, "CD14+ cells [2]": {"test_system": "CD14+ cells", "test": "RNAseq / NanoString gene expression analysis of pulsed CD14+ cells", "format": "cell-based, human", "from_the_text": "Nanostring gene expression analysis: Total RNA from CD14^+ cells was sent to New Zealand Genomics Limited (Dunedin, New Zealand) to measure the expression of genes that are differentially expressed during inflammation (nCounter GX, NanoString Technologies, Seattle, WA, USA). Briefly, total RNA was extracted from CD14^+ cells (MagJET RNA kit, Thermo Fisher Scientific, Waltham, MA) using the protocol adapted for tissue (KingFisher Duo machine, Thermo Fisher Scientific, Waltham, MA). RNA samples were then quantified (Qubit® 2.0 fluorometer, Thermo Fisher Scientific) and subjected to RNA integrity analysis (2100 Bioanalyzer, Agilent Technologies, Santa Clara, CA). Probes for the genes encoding CD44 (NM_001001392.1); NANOG (NM_024865.2); OCT4 (NM_002701.4); STAT3 (NM_139276.2); and the housekeeping genes glucuronidase beta (NM_000181.1), clathrin heavy chain (NM 4859.2), and hypoxanthine phosphoribosyltransferase 1 (NM_000194.1) were designed and manufactured by NanoString Technologies.\nExpression data obtained with NanoString GX were analyzed by using nSolver Analysis Software 3.0 (nanostring.com/products/nSolver) with default settings, and normalized to housekeeping genes. nSolver was used to perform cluster analysis and to generate heat maps by using Java Treeview Version 1.1.6r4. Pathway analysis was performed by using the PathCards Pathway Unification Database (pathcards.genecards.org). Student's t-tests were used to determine significant differences (p<0.05)."}, "CD14+ cells [3]": {"test_system": "CD14+ cells", "test": "Dendritic cell maturation: phenotyping for CD80, CD86, HLA-DR", "format": "cell-based, human", "settings": "peptide alone compared with GM-CSF+IL4, p<0.0001", "description": "FIGS. 4A-4D. Targeting CD200 activation receptors enhances dendritic cell maturation. (FIGS. 4A, 4B) CD14 purified cells were pulsed with (FIG. 4A) GM-CSF+IL4 or equal molar ratios of peptides P1A8, P2A0, or P4A10 or (FIG. 4B) GM-CSF+IL4 plus equal molar ratios of peptides P1A8, P2A0, or P4A10 and incubated for 48 h. Cells were harvested and phenotyped for CD80, CD86, and HLA-DR. (FIG. 4C) Immature dendritic cells from donors with or without CMV were pulsed with the CMV antigen pp65+/−equal molar ratios of peptides P1A8, P2A0, or P4A10. Cells were washed, and autologous T-cells were added back and incubated for a further 48 h. Supernatants were analyzed for IFNγ production. (FIG. 4D) Immature dendritic cells were pulsed with the CMV antigen pp65+/−P4A10. After the cells were washed, autologous T-cells were added back and incubated for a further 48 h. Supernatants were analyzed for IFNγ, IL-6, TNFα and RANTES content. Error bars represent standard deviation (n=3 healthy donors/group, *P<0.05, **P<0.005, ***P<0.0005 by t-test). The data represent three separate healthy donors. Black bars represent CMV-negative donors.\nTargeting CD200 activation receptors enhances dendritic cell maturation. TNF-regulated cytokines (Table 1) have been implicated in dendritic cell maturation. […] To substantiate this, CD14^+ cells were isolated from healthy human donors and pulsed with GM-CSF+IL4, P1A8, P2A0, or P4A10 27. Cells pulsed with P1A8, P2A0, and P4A10 expressed higher levels of the co-stimulatory molecules CD80, CD86, and HLA-DR than cells treated with GM-CSF+IL4 (p<0.0001; FIG. 4a). Moreover, we observed synergistic upregulation of CD80/86 and HLA-DR when CD14^+ cells were incubated with GM-CSF+IL4 and each of the peptides (p<0.0001) (FIG. 4b)."}, "human CD14 cells": {"test_system": "human CD14 cells", "test": "CD200R1 and PD-1 on human CD14 cells pulsed with human CD200AR-L, flow cytometry", "format": "cell-based", "settings": "mean fluorescent intensity", "description": "FIGS. 7A-7G. CD200AR-L pulses down-regulate inhibitory CD200R1. Murine CD11b cells were pulsed with mCD200AR-L, RNA was extracted and analyzed for CD200R1 or PD-1 expression (FIGS. 7A&B). To further these studies, CD11b cells were stimulated with OVA+/−CD200AR-L, cells were washed and purified T cells were added. Following 24 hr incubation, T-cells were isolated and analyzed for CD200R1 or PD-1 expression (FIGS. 7C&D). To see if these experiments translated to humans, CD14 cells were pulsed with our human CD200AR-L. Following 24 hr incubation, cells were stained with anti-CD200R1 analyzed by flow cytometry (FIG. 7E), mean fluorescent intensity was analyzed for CD200R1 (FIG. 7F) and PD-1 (FIG. 7G) expression. […] Error bars represent standard deviation (n=3/group, *P<0.05, **P<0.005, ***P<0.0005, ****P<0.00005 by t-test.\nFIGS. 13A-13F. Figure. […] Murine CD11b cells were pulsed CD200AR-L and analyzed for transcription levels of (FIG. 13A) CD200R1 and (FIG. 13B) PD-1; Human CD14 cells were pulsed with human CD200AR-L, following 48 hr incubation, cells were analyzed by flow cytometry for (FIG. 13C) CD200R1 and (FIG. 13D) PD-1 expression; murine CD11b cells from wildtype mice were pulsed with OVA+/− the CD200AR-L. Cells were washed, purified CD3 cells were added to CD11b cells for 24 hrs. CD3 cells were purified and analyzed for transcription levels of (FIG. 13E) CD200R1 and (FIG. 13F) PD-1. […]"}, "Murine CD11b cells": {"test_system": "Murine CD11b cells", "test": "PMA-activated murine CD11b cells treated with PD-L1 +/- murine CD200AR-L, cytokines", "format": "cell-based", "settings": "PD-L1 with or without murine CD200AR-L, 48 hr", "from_the_text": "FIGS. 8A-8C. CD200AR-L pulses overpowers the suppressive PD-L1."}, "Murine splenocytes": {"test_system": "Murine splenocytes", "test": "Splenocytes activated with PMA +/- PD-L1 or PD-L1+CD200AR-L, cytokines", "format": "cell-based", "settings": "48 hr", "description": "FIGS. 11A-11C. […] Murine splenocytes were activated with PMA, +/−PD-L1 or PD-L1+mCD200AR-L. Following 48 hr incubation, supernatants were analyzed for (FIG. 11A) TNFα (FIG. 11B) IL-4 or (FIG. 11C) IL-5. Error bars are representative of n=3; *P<0.005.\nThe CD200 and PD-1 pathways crosstalk, allowing CD200AR-L to override the suppressive PD-L1. […] To evaluate the effect of CD200AR-L on PD-1/PD-L1, splenocytes were activated with PMA+/−PD-L1 or PD-L1+CD200AR-L, and supernatants were analyzed for TNFα, IL-4 and IL-5 production (FIG. 11A-11C). As observed with the CD200 protein (FIG. 11B), PD-L1 induced an immune suppressed environment as measured by cytokine production; however, PD-L1 reduced the production of TNFα, IL-4 and IL-5 induced by PMA, which was restored by the addition of CD200AR-L. These experiments led to the hypothesis that the CD200 and PD-1 pathways are connected."}, "Splenocytes": {"test_system": "Splenocytes", "test": "Splenocytes pulsed with CD200 or PD-L1 +/- mCD200AR-L, flow cytometry for CTLA4 and PD-L1", "format": "cell-based", "description": "FIGS. 14A-14C. […] Splenocytes were pulsed with CD200, PD-L1+/−mCD200AR-L. Cells were analyzed by flow cytometry for the (FIG. 14A) CD4^+CTLA4^+, (FIG. 14B) CD8^+CTLA4^+or (FIG. 14C) CD11b^+PD-L1^+ populations. Error bars are representative of n=2 *P<0.005, **P<0.0001.\nWe propose that soluble CD200 and PD-L1 inhibit T cell activation through multiple checkpoints (FIG. 10). Therefore, the effect of multiple suppressive molecules (CD200 and PD-L1) on T cell inhibition was investigated. […] In addition, following PD-L1 treatment, an upregulation of PD-L1 on CD11b and an upregulation of CTLA4 was observed on T cells. Being CTLA4 and PD-L1 propagate separate inhibitory signals, it was hypothesized that PD-L1 inhibits T cell activation through 1) direct CD200 and PD-L1 on T cells and 2) direct PD-L1 (on APCs)/PD-I (on […]) producing cytokines upregulating CTLA4, which would explain the enhanced responses seen in combination α-PD-1 and α-CTLA4 treatments. However, neither of them inhibit CD200 effect on T cells.\nWe next looked at the effects of CD200AR-L on T cell inhibition. […] Being CTLA4 and PD-L1 propagate separate inhibitory signals, we hypothesize that PD-L1 inhibits T cell activation through two separate mechanisms, 1) through direct PD-L1 (on APCs)/PD-I (on T cells) interactions and through cytokine production following PD-L1 binding to the PD-1 on CD11b cell, which would explain the enhanced responses seen in combination α-PD-1 and α-CTLA4 treatments."}, "murine glioma model": {"test_system": "murine glioma model", "test": "Murine glioma model survival", "format": "in vivo"}, "[4]": {"settings": "splenocytes pulsed with CD200 or PD-L1"}}, "note": "“Also recorded” adds a separate entry of the source.", "data": [{"substance": "CLFNTFGSGAISGTA (Ac-CLFNTFGSGAISGTA-NH2; listed as Canis lupus) [canine P4A10]", "values": [{"measurement": "survival benefit", "setting": "[1]", "value": "significant survival benefit"}]}, {"substance": "IVTWQKKAAVSPENM (Ac-IVTWQKKAAVSPENM-NH2; listed as Homo sapiens) [P1A8]", "values": [{"measurement": "secretion of inflammatory cytokines from CD14+ cells", "setting": "Human CD14+ cells", "value": "maximally stimulated"}, {"measurement": "mRNA expression of TNF-regulated cytokines", "setting": "CD14+ cells [2]; NanoString platform, FIG. 3b", "value": "most potently and consistently induced"}, {"measurement": "mRNA expression of cytokines released in response to TNF signaling", "setting": "CD14+ cells [2]; RNAseq, CD14+ cells", "value": "notable increase"}, {"measurement": "levels of co-stimulatory molecules CD80, CD86, and HLA-DR", "setting": "CD14+ cells [3]", "value": "higher levels"}, {"measurement": "PD-1 expression on human CD14 cells", "setting": "human CD14 cells", "value": "down regulated"}]}, {"substance": "PD-L1: programmed cell death ligand 1, suppressive protein used to pulse cells", "values": [{"measurement": "activation of CD11b cells (TNFalpha, IL4, IL5 in supernatant)", "setting": "Murine CD11b cells", "value": "suppressed the activation"}, {"measurement": "production of TNFα, IL-4 and IL-5", "setting": "Murine splenocytes", "value": "reduced"}, {"measurement": "CTLA4 on CD4 cells", "setting": "Splenocytes; [4]", "value": "upregulated"}, {"measurement": "CTLA4 on CD8 cells", "setting": "Splenocytes; [4]", "value": "upregulated"}, {"measurement": "PD-L1 on CD11b cells", "setting": "Splenocytes; [4]", "value": "upregulation; also recorded: upregulated"}, {"measurement": "CTLA4 on T cells", "setting": "Splenocytes; total splenocytes, following PD-L1 treatment", "value": "upregulation"}]}, {"substance": "VTWQKKKAVSPANM (Ac-VTWQKKKAVSPANM-NH2; listed as Mus musculus) [murine P1A12]", "values": [{"measurement": "survival benefit", "setting": "murine glioma model", "value": "significant survival benefit"}]}]}
